Laboratory results as given in patent publication US20230331803A1, “CO-AGONISTS OF THE GLP-1 AND AMYLIN RECEPTORS” (priority 2020, published 2023).
“Also recorded” adds a separate entry of the source. Read-outs that look alike come from different tables or passages of the source. Starred links: 1 amine or outer side, 2 acyl side, 3 side chain; linkers in the order of their positions; H or OH if unused. Non-standard residues stand in square brackets, D forms with d. Groups on a side chain read outwards from the residue. *: point of attachment. Butyryl(4-SO2NHCO(CH2)16Tz) = O=C(CCCCCCCCCCCCCCCCc1nnn[nH]1)NS(=O)(=O)CCCC(=O)*; Decanoyl(10-(4-HOOC-PhO)) = O=C(O)c1ccc(OCCCCCCCCCC(=O)*)cc1; C20 diacid = O=C(O)CCCCCCCCCCCCCCCCCCC(=O)*; C18 diacid = O=C(O)CCCCCCCCCCCCCCCCC(=O)*; C16 diacid = O=C(O)CCCCCCCCCCCCCCC(=O)*; γGlu = O=C(O)[C@H](CCC(=O)[*:2])N[*:1]; Desaminohistidyl = O=C(CCc1c[nH]cn1)*; εLys = N[C@@H](CCCCN[*:1])C(=O)[*:2]; Trx = NC[C@H]1CC[C@H](C(=O)O)CC1; AEEA = NCCOCCOCC(=O)O; Aib = CC(C)(N)C(=O)O

Columns and labels:
[1] = tested on: Sprague Dawley (SD) rats; experiment: Acute food intake in ad libitum fed rats after a single subcutaneous administration; type: in vivo, rat; settings: for Food intake relative to vehicle (%) 0-24 hr, 10 nmol/kg / Food intake relative to vehicle (%) 24-48 hr, 10 nmol/kg: rat, single administration;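 as to all read-outs here: food intake monitored in the HM2 system, three rats per cage kept on a reversed light cycle, with food and water freely available after the subcutaneous dose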
From the text: Sprague Dawley (SD) rats from Taconic Europe, Denmark were used for the acute food intake experiments, wherein the principles of laboratory animal care were followed.
The rats arrived at least 10-14 days before the start of the experiment to allow acclimatisation to experimental settings. During this period, the animals were handled at least 2 times. Immediately upon arrival, rats were put on a reversed light cycle (dark from 11am - 11pm) and put in the HM2 system and ID chipped. Three rats were housed in each cage. […] The rats were dosed once according to body weight with a 0.01-3 mg/kg solution administered subcutaneously (sc). The time of dosing was recorded for each group.
After dosing, the rats were returned to their home cages, where they had access to food and water. […] At the end of the experimental session, the animals were euthanised.

[2] = target: T1, human amylin receptor (hAmyR3) (Homo sapiens, UniProt O60896+P30988); experiment: Human amylin receptor in vitro potency assay (CRE-luciferase reporter, BHK cells); type: cell-based;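 also: BHK cells expressing human calcitonin receptor plus RAMP3 (amylin-3 receptor) with a CRE-luciferase reporter, agonist activity read as luminescence from cAMP-driven transcription, 7-point serial dilutions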
T1 construct: host or cells: BHK cells (Hollex-1 line: human calcitonin receptor (a) + CRE-Luc), further transfected with human RAMP3
From the text: Activation of hAmyR3 leads to increased cellular concentrations of cAMP. Consequently, transcription is activated by promotors containing multiple copies of the cAMP response element (CRE). It is thus possible to measure hAmyR3 activity using a CRE-luciferase reporter gene introduced into Baby Hamster Kidney (BHK) cells co-expressing the hAmyR3.
The cell line was further transfected with human receptor modifying protein 3 (RAMP3) using standard methods. This turns the human calcitonin receptor into a human amylin-3(a) receptor.
(§1) Cells were aliquoted and stored at -180° C. until use.
The plate was incubated over night at 37° C. in 5% CO2. On the day of the assay, cells were washed three times in assay buffer. Serial dilutions (7-fold dilutions, 7 concentrations pr. compound and one well containing only assay buffer) of comparator compounds and GLP-1 receptor-amylin receptor co-agonists were performed in assay buffer often starting from approximately 10-100 nM in 96-well plates and 30 µL of each concentration added to the 384-well assay plate with cells. […] The assay plate was sealed, incubated at room temperature with gentle shaking for 5 minutes followed by 30 minutes incubation without shaking while protected from light. Luminescence was detected on a luminescence plate reader e.g. a Synergy 2 (BioTek).

[3] = target: T2, human GLP-1 receptor (Homo sapiens, UniProt P43220); experiment: Human GLP-1 receptor in vitro potency assay (CRE-luciferase reporter, BHK cells); type: cell-based
T2 construct: expressed in transfected cells; host or cells: BHK (Baby Hamster Kidney) cells, clone BHK 467-12A KZ-10, stably transfected, with CRE-luciferase reporter
Method: It is thus possible to measure GLP-1 receptor activity using a CRE-luciferase reporter gene introduced into Baby Hamster Kidney (BHK) cells co-expressing the GLP-1 receptor.
as §1
Plates were sealed and incubated at room temperature with gentle shaking for 30 minutes while protected from light. Luminescence was detected on a luminescence plate reader e.g. a Synergy 2 (BioTek).

[4] = Pharmacokinetic studies in Beagle dogs after oral administration of SNAC-based tablets; type: in vivo
Procedure, shortened: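 Plasma exposure of GLP-1/amylin co-agonists measured by LCMS over up to 240 h after peroral dosing of SNAC tablets (100–300 mg SNAC, 3–4 mg compound) to overnight-fasted male Beagles. Some dogs pre-dosed s.c. with ~3 nmol/kg SEQ ID NO: 237; PK by NCA.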

[5] = Table 4a, BHK hAmyR3/CRE-Luc cells, 3 hours, read-out: Human AmyR3 potency [EC50 (pM)]
[6] = Table 4a, BHK cells expressing human GLP-1R, CRE-Luc, 3 hours, read-out: Human GLP-1R potency [EC50 (pM)]
[7] = dogs, oral administration (tablet)
[8] = male, Beagle, dog, in vivo, dogs, oral administration (tablet), read-out: Tmax
[9] = male, Beagle, dog, in vivo, dogs, oral administration (tablet), read-out: T½ (converted)
[10] = male, Beagle, dog, in vivo, po, Tmax (hr)
[11] = male, Beagle, dog, in vivo, po, T½ (hr)

T2 sequence (P43220 24-463): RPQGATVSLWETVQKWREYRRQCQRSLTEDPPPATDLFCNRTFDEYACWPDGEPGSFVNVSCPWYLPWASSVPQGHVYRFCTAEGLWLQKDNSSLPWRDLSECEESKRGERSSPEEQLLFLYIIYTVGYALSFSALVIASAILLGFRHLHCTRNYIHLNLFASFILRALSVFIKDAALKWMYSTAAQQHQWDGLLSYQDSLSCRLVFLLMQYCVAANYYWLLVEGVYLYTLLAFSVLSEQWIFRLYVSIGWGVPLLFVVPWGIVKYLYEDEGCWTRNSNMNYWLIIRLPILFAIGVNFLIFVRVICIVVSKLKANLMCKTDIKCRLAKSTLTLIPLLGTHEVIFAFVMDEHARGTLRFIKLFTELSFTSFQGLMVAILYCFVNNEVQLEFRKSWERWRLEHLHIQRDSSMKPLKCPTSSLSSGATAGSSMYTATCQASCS
T1 sequence (P30988 25-474): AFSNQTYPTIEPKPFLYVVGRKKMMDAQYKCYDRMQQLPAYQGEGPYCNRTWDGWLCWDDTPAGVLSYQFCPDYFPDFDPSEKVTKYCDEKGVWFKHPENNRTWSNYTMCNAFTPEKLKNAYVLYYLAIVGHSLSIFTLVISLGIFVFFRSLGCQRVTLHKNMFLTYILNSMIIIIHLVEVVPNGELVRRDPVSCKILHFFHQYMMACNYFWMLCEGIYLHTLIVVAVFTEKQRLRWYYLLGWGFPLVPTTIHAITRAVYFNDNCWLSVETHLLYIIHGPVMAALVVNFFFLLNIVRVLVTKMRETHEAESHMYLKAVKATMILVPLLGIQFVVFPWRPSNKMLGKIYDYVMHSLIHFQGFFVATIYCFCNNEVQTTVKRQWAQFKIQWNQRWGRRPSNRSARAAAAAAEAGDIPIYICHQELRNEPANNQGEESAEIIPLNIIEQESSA
T1 sequence (O60896 24-148): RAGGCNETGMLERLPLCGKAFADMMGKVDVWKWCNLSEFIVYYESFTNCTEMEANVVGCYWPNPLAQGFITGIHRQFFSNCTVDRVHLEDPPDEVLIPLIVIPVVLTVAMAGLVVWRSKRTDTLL

Row | Molecule | Food intake relative to vehicle (%) 0-24 hr, 10 nmol/kg ([1]; Table 6a) [%] | Food intake relative to vehicle (%) 24-48 hr, 10 nmol/kg ([1]; Table 6a) [%] | EC50 [2, 5] [pM] | EC50 [3, 6] [pM] | other results
1 | Desaminohistidyl-AEGTFTSDVSSYLEEQAAREFIAWLVRGRK([AEEA-AEEA-γGlu-Trx-C20 diacid])EASELSTAALGRLSAELHELATLPRTETGSGSP-NH2 [Compound 0035] | 76 | 95 | 16 | 16.7 | –
2 | H-HWEGTFTSDVSSYLEEQAARK([AEEA-AEEA-γGlu-Decanoyl(10-(4-HOOC-PhO))])FIEWLVRGRGEGGGGGASELSTAALGRLSK([AEEA-AEEA-γGlu-Decanoyl(10-(4-HOOC-PhO))])ELHELATLPRTETGSGSP-NH2 [Compound 0231] | 27 | 76 | – | – | AUC/D [4, 7]: 0.83 kg·h/L; Cmax/D [4, 7]: 0.27 kg/L; Tmax [4, 8]: 1 h; half-life [4, 9]: 6 h; EC50 [2]: 68 pM; EC50 [3]: 5.6 pM
3 | H-H[Aib]EGTFTSDVSSYLEGQAAK([εLys-AEEA-AEEA-γGlu-C18 diacid])EFIAWLVRGRGGGEASELSTAALGRLSAELHELATLPRTETGSGSP-NH2 [Compound 0044] | 40 | 82 | 9.1 | 16 | –
4 | H[Aib]EGTFTSDVSSYLEEQAARK([γGlu-C18 diacid])FIAWLVRGRK([γGlu-C18 diacid])EASELSTAALGRLSAELHELATLPRTETGSGSP-NH2 [Compound 0131] | 70 | 80 | 14.5 | 16.1 | –
5 | H-HWEGTFTSDVSSYLEEQAARK([AEEA-AEEA-γGlu-Decanoyl(10-(4-HOOC-PhO))])FIEWLVRGRGEGGGGGASELSTAALGRLSAELHELK([AEEA-AEEA-γGlu-Decanoyl(10-(4-HOOC-PhO))])TLPRTETGSGSP-NH2 [Compound 0232] | 61 | 95 | – | – | AUC/D [4, 7]: 2.00 kg·h/L; Cmax/D [4, 7]: 0.51 kg/L; Tmax [4, 8]: 0.8 h; half-life [4, 9]: 4 h; EC50 [2]: 74.2 pM; EC50 [3]: 6.4 pM
6 | H-H[Aib]EGTFTSDVSK([AEEA-AEEA-γGlu-C20 diacid])YLEEQAAREFIAWLVRGRGGGGGEASELSTAALGRLSAELHELATLPRTETGSGSP-NH2 [Compound 0565] | 39 | 42 | 6.2 | 6.4 | –
7 | HWEGTFTSDVSSYLEEK([εLys-AEEA-AEEA-γGlu-Trx-C20 diacid])AAREFIEWLVRGRGEASELSTAALGRLSAELHELATLPRTETGSGSP-NH2 [Compound 0434] | 39 | 105 | 13.9 | 11.8 | –
8 | H-H[Aib]EGTFTSDVSSYLEEQAAREFIAWLVRGRK([AEEA-AEEA-γGlu-C20 diacid])GGGGEASELSTAALGRLSAELHELATLPRTETGSGSP-NH2 [Compound 0502] | 61 | 72 | 9 | 8.4 | Tmax ([4]; male, Beagle, dog, in vivo, po): 4.0 h; Tmax [4, 10]: 2 h; half-life [4, 11]: 66 h
9 | H-H[Aib]EGTFTSDVSRYLEEQAAREFIEWLVRGRK([AEEA-AEEA-γGlu-Trx-C20 diacid])GGGGEASELSTAALGRLSAELHELATLPRTETGSGSP-NH2 [Compound 0511] | 61 | 75 | 8.4 | 8.8 | AUC/D ([4]; dog, in vivo, po): 3.80 kg·h/L; Cmax/D ([4]; dog, in vivo, po): 0.14 kg/L; Tmax [4, 10]: 2 h; half-life [4, 11]: 25 h
10 | H-H[Aib]EGTFTSDVSSYLEEK([AEEA-AEEA-γGlu-C16 diacid])AAREFIAWLVRGRGGGGGEASELSTAALGRLSAELHELATLPRTETGK([AEEA-AEEA-γGlu-C16 diacid])GSP-NH2 [Compound 0411] | 81 | 88 | 45.9 | 3.5 | –
11 | H-H[Aib]EGTFTSDVSSYLEEQAARK([εLys-AEEA-AEEA-γGlu-Trx-C20 diacid])FIEWLVRGRGEASELSTAALGRLSAELHELATLPRTETGSGSP-NH2 [Compound 0439] | 43 | 41 | 10.7 | 8.3 | AUC/D ([4]; dog, in vivo, po): 5.36 kg·h/L; Cmax/D ([4]; dog, in vivo, po): 0.21 kg/L; Tmax [4, 10]: 2 h; half-life [4, 11]: 24 h
12 | H[Aib]EGTFTSDVSSYLEEQAARK([AEEA-AEEA-γGlu-C18 diacid])FIAWLVRGRK([AEEA-AEEA-γGlu-C18 diacid])GGEASELSTAALGRLSAELHELATLPRTETGSGSP-NH2 [Compound 0116] | 83 | 82 | 21.7 | 1.5 | –
13 | H-H[Aib]EGTFTSDVSSYLEGQAAREFIAWLVRGRK([AEEA-AEEA-γGlu-C18 diacid])GGGGEASELSTAALGRLSAELHELATLPRTETGSGSP-NH2 [Compound 0151] | 29 | 70 | 9.5 | 10.4 | –
14 | H-H[Aib]EGTFTSDVSSYLEEQAAREIFAWLVRGRK([AEEA-AEEA-γGlu-Trx-C20 diacid])GGGGEASELSTAALGRLSAELHELATLPRTETGSGSP-NH2 [Comparator compound 0167, reference compound] | – | – | – | – | Food intake relative to vehicle (%) 0-24 hr, 10 nmol/kg ([1]; Table 6b): 85%; Food intake relative to vehicle (%) 24-48 hr, 10 nmol/kg ([1]; Table 6b): 73%; Inhibition of food intake, in words ([1]; rats, 10 nmol/kg): significantly less than in the case of compound 0120; EC50 ([2]; Table 4c, further comparator compounds, read-out: Human AmyR3 potency [EC50 (pM)]): 10.9 pM; Ability to agonise the amylin receptor, in words ([2]; Tables 4a-4c): full amylin potency; EC50 ([3]; Table 4c, further comparator compounds): ≥ 10000 pM; Ability to agonise the GLP-1 receptor, in words ([3]; Tables 4a-4c): impaired their ability to agonise (activate) the GLP-1 receptor; also recorded: impaired GLP-1 activity
15 | H-H[Aib]EGTFTSDVSSYLEGQAAK([AEEA-AEEA-γGlu-C18 diacid])EFIAWLVRGRGGGEASELSTAALGRLSAELHELATLPRTETGSGSP-NH2 [Compound 0007] | 67 | 105 | 9.4 | 13.3 | –
16 | HWEGTFTSDVSSYLEEQAARK([AEEA-AEEA-γGlu-Decanoyl(10-(4-HOOC-PhO))])FIEWLVRGK([AEEA-AEEA-γGlu-Decanoyl(10-(4-HOOC-PhO))])GEGGGGGEASELSTAALGRLSAELHELATLPRTETGSGSP-NH2 [Compound 0100] | 85 | 86 | – | – | EC50 [2]: 30.4 pM; EC50 [3]: 6.8 pM
17 | H-H[Aib]EGTFTSDVSSYLEEQAAREFIAWLVRGRK(Butyryl(4-SO2NHCO(CH2)16Tz))EASELSTAALGRLSAELHELATLPRTETGSGSP-NH2 [Compound 0103] | 80 | 80 | 11.6 | 28.1 | –
18 | H-Aib-EGTFTSDVS-K([2-[2-[2-[[2-[2-[2-[[(4S)-4-Carboxy-4-[[4-[(19-Carboxynonadecanoylamino)Methyl]Cyclohexanecarbonyl]Amino]Butanoyl]Amino]Ethoxy]Ethoxy]Acetyl]Amino]Ethoxy]Ethoxy]Acetyl])-YLEEQAAREFIA … (peptide) peptide: H-H[Aib]EGTFTSDVSK([AEEA-AEEA-γGlu-4‑(aminomethyl)cyclohexanecarbonyl-C20 diacid])YLEEQAAREFIAWLVRGRGGGGGEASELSTAALGRLSAELHELATLPRTETGSGSP-NH2 | 50 | 45 | – | – | AUC/D [4, 7]: 11.10 kg·h/L; Cmax/D [4, 7]: 0.45 kg/L; Tmax [4, 7]: 2.0 h; T½ [4, 7]: 27 h
19 | HWEGTFTSDVSSYLEEQAAR-K([2-[2-[2-[[2-[2-[2-[[(4S)-4-Carboxy-4-[[4-[(19-Carboxynonadecanoylamino)Methyl]Cyclohexanecarbonyl]Amino]Butanoyl]Amino]Ethoxy]Ethoxy]Acetyl]Amino]Ethoxy]Ethoxy]Acetyl])-FIEWLVR … (peptide) peptide: HWEGTFTSDVSSYLEEQAARK([AEEA-AEEA-γGlu-4‑(aminomethyl)cyclohexanecarbonyl-C20 diacid])FIEWLVRGRGEGGGGGASELSTAALGRLSAELHELATLPRTETGSGSP-NH2 | 71 | 46 | – | – | AUC/D [4, 7]: 19.54 kg·h/L; Cmax/D [4, 7]: 0.36 kg/L; Tmax [4, 7]: 1.8 h; T½ [4, 7]: 40 h
20 | H-Aib-EGTFTSDVSSYLEEQAAREFIAWLVRGRP-K([2-[2-[2-[[2-[2-[2-[[(4S)-4-Carboxy-4-[[4-[(19-Carboxynonadecanoylamino)Methyl]Cyclohexanecarbonyl]Amino]Butanoyl]Amino]Ethoxy]Ethoxy]Acetyl]Amino]Ethoxy]Ethoxy]A … (peptide) peptide: H[Aib]EGTFTSDVSSYLEEQAAREFIAWLVRGRPK([AEEA-AEEA-γGlu-4‑(aminomethyl)cyclohexanecarbonyl-C20 diacid])GGGGEASELSTAALGRLSAELHELATLPRTETGSGSP-NH2 | 73 | 53 | – | – | AUC/D [4, 7]: 3.25 kg·h/L; Cmax/D [4, 7]: 0.12 kg/L; Tmax [4, 7]: 3.0 h; T½ [4, 7]: 25 h
21 | H-Aib-EGTFTSDVSSYLEEQAAREFIAWLVRGR-K([(2S)-2-Amino-6-[[2-[2-[2-[[2-[2-[2-[[(4S)-4-Carboxy-4-[[4-[(19-Carboxynonadecanoylamino)Methyl]Cyclohexanecarbonyl]Amino]Butanoyl]Amino]Ethoxy]Ethoxy]Acetyl]Amino … (peptide) peptide: H[Aib]EGTFTSDVSSYLEEQAAREFIAWLVRGRK([εLys-AEEA-AEEA-γGlu-4‑(aminomethyl)cyclohexanecarbonyl-C20 diacid])GGGGEASELSTAALGRLSAELHELATLPRTETGSGSP-NH2 | 47 | 44 | – | – | AUC/D [4, 7]: 6.53 kg·h/L; Cmax/D [4, 7]: 0.14 kg/L; Tmax [4, 7]: 2.0 h; T½ [4, 7]: 23 h
